Values quoted from earlier work as cited in patent US10029078B2, “Pancreas perfusion apparatus, method for controlling same, and method for pancreas perfusion” (KOSEI ADVANCE CO., LTD., priority 2013, dated 2018).

Tested on: unresectable pancreatic cancer
Conditions: patients with unresectable pancreatic cancer, systemic chemotherapy

SMILES: Nc1ccn([C@@H]2O[C@H](CO)[C@@H](O)C2(F)F)c(=O)n1 [gemcitabine]
- median survival time: approximately 6 months
- response rate: approximately 10%
